The values that follow come from ChEMBL document CHEMBL1201862, “PubChem BioAssay data set” (2004).

The nature of assay [1]: HEK293 Cytotoxicity Assay Measured in Cell-Based System Using Plate Reader - 7071-01_Inhibitor_Dose_CherryPick_Activity_Set2. Format: functional.
Assay [2] relates to HEK293. As to the kind of experiment: HEK293T cell cytotoxicity, dose response, cytotoxicity control, ATP luminescence, cherry-pick samples (AID 687005).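 Also: cells exposed to compound for 48 hours.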 Format: functional, cell-based. The note with it: Homo sapiens.
Assay [3] is described as follows: cytotoxicity toward HCT116 cells – cell-based, CellTiter-Glo luminescence, IC50, dose response (AID 1117332). The note with it: HCT-116. Format: functional.
A short description of assay [4]: SNU-C1 cell viability reduction, dose response, CellTiter-Glo luminescence (AID 1117323). Type of assay: functional, cell-based.
Assay [5] in a line: Concentration-dependent survival of SW480 colon cancer line, luminescence detection with CellTiter-Glo, half-maximal inhibitory concentration (AID 1117338). Format: functional.
The nature of assay [6]: CellTiter-Glo luminescent dose response of DLD-1 viability loss (AID 1117352). Type of assay: functional.
Assay [7] in a line: cytotoxicity toward Colo320 cells – cell-based, CellTiter-Glo luminescence, IC50, dose response (AID 1117334). Format: functional. The note with it: COLO 320.
A short description of assay [8]: RKO cell viability reduction, dose response, CellTiter-Glo luminescence (AID 1117322). Format: functional.
The next assay addresses fMet-Leu-Phe receptor (Homo sapiens, UniProt P21462). Kind of assay: FPR ligands, dose response (AID 519). Format: functional.
A short description of assay [9]: HCT116 cell viability decrease, GSK3B pretreatment – CellTiter-Glo, IC50, dose response (AID 1117339). The note with it: HCT-116. Format: functional.
A short description of assay [10]: cytotoxicity toward HT-29 cells – cell-based, CellTiter-Glo luminescence, IC50, dose response (AID 1117330). Type of assay: functional.
The nature of assay [11]: Luminescence Cell-Based Dose Response HTS to Identify Inhibitors of 5'UTR Stem-Loop Driven Prion Protein mRNA Translation in H4 Neuroglioblastoma Cells. [Related pubchem assays: 1827 (Project Summary), 1813 (Primary HTS)]. Format: functional.
Assay [12] in a line: inhibitors of SNCA 5'UTR-driven reporter translation, confirmation, H4 neuroglioma cells, luminescence (AID 1988). Type of assay: functional, cell-based.
Assay [13] is described as follows: A549 cell cytotoxicity, dose response, cytotoxicity control, plate reader, cherry-pick, antagonist series (AID 743412). Type of assay: functional, cell-based.
Assay [14] concerns HEK293. Kind of assay: inhibitors of LMP1-driven NF-kB reporter, dose response, cell-based, HEK293, luciferase, cherry-pick (AID 588343). The note with it: Homo sapiens. Type of assay: functional.
A short description of assay [15]: HepG2 cell cytotoxicity, dose response, cytotoxicity control, plate reader, cherry-pick, antagonist series (AID 743416). Format: functional, cell-based.
Assay [16] is described as follows: HEK293 cell cytotoxicity, dose response, cytotoxicity control, plate reader, cherry-picked samples (AID 743446). Format: functional, cell-based.
The target of assay [17] is Oxysterols receptor LXR-beta (Homo sapiens, UniProt P55055). Format: functional, cell-based.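 Also: Cell-based luminescence dose-response assay of agonist activity at LXR, run as a confirmatory counterscreen to a daf-12 agonist screen; HEK293 cells with Gal4-LXR fusion and GAL4-driven luciferase reporter; agonist potency from rising luciferase signal of a Gal4-LXR reporter.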
Sequence of Oxysterols receptor LXR-beta (P55055 whole entry, the tested form may be a part): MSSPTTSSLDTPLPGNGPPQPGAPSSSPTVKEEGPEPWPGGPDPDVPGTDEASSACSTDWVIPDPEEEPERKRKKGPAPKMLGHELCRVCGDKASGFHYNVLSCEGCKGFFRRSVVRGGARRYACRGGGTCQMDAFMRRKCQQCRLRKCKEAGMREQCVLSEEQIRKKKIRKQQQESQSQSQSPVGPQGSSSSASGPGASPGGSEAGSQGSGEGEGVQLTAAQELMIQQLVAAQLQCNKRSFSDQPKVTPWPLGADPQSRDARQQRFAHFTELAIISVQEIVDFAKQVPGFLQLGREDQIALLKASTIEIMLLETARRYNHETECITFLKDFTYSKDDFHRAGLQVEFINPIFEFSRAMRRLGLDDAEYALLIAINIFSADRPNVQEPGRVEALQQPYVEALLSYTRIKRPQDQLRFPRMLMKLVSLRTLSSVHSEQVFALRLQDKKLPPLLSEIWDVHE
Assay [18] can be described thus: MC4R antagonists, dose response, counter-screen for LGR2 antagonist project, cell-based, plate reader, cherry pick (AID 743444).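 Also: transfected HEK 293 cells stimulated with alpha-MSH peptide; potency of inhibitors of the alpha-MSH evoked signal.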 Type of assay: functional.
The nature of assay [19]: LGR2 antagonists, dose response, cell-based, HEK293, CRE-luciferase reporter, cherry pick, set 2 (AID 743343).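 Also: transfected cells were stimulated with diluted bursicon conditioned medium after compound addition.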 Type of assay: functional.
The nature of assay [20]: Vero cell cytotoxicity, dose response, cytotoxicity control for Vif-APOBEC3G degradation inhibitor project, Vero cells (AID 1117358). Format: functional. The note with it: Human immunodeficiency virus 1, Vero.
Assay [21] in a line: Luminescence Cell-Based Dose Response HTS to Identify Activators of Luciferase Translation or Activity in H4 […] Cells. [Related pubchem assays: 1829 (Project Summary), 1814 (Primary HTS)]. Format: functional.
The next assay addresses Kallikrein-7 (Homo sapiens, UniProt P49862). Kind of assay: Fluorescence Intensity-based biochemical primary high throughput dose response assay to identify activators of kallikrein-7 (K7) zymogen.
The target in assay [22] is Luciferin 4-monooxygenase (Photinus pyralis, UniProt P08659). As to the kind of experiment: firefly luciferase enzyme inhibitors, dose response, biochemical, luminescence (AID 1891).
Sequence of Luciferin 4-monooxygenase (P08659 whole entry): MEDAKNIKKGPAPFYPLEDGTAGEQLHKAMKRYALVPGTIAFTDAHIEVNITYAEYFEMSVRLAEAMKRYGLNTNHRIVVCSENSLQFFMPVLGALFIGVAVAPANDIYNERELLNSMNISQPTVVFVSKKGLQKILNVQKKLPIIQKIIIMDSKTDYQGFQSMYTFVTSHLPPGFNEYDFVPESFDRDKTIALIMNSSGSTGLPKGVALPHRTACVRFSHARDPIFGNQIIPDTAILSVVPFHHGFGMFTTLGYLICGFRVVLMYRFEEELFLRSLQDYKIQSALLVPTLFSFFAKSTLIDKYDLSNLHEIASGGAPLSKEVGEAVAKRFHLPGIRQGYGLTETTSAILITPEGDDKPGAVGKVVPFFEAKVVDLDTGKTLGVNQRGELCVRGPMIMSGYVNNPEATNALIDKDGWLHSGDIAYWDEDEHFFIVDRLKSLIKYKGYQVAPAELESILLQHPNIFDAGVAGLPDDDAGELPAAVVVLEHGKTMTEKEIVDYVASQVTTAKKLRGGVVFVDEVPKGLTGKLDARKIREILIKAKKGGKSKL
Assay [23] is described as follows: Luminescence Cell-Based Dose Confirmation HTS to Identify Inhibitors of Platelet Dense Granule Release. [Related pubchem assays: 1663 (Primary HTS), 1678 (Summary of Project)]. Format: functional.

Activity calls are given as the source filed them.

Sequence of fMet-Leu-Phe receptor (P21462 whole entry): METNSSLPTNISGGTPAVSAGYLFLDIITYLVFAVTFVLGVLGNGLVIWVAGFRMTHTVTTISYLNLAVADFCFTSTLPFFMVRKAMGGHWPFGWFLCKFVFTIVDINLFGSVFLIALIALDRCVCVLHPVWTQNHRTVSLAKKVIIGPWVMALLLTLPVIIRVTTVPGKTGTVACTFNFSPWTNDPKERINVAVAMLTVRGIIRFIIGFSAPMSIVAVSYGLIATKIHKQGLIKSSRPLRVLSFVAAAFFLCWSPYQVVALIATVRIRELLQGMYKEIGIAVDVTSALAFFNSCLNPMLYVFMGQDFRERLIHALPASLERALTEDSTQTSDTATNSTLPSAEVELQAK
Sequence of Kallikrein-7 (P49862 whole entry): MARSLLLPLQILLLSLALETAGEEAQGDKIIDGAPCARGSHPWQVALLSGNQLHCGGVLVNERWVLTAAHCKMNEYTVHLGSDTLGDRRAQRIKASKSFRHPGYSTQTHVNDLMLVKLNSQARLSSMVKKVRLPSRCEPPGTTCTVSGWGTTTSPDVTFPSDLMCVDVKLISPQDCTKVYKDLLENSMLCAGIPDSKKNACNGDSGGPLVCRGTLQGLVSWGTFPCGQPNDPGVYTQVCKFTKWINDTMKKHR

As for `C[C@H](CO)N1C[C@H](C)[C@H](CN(C)Cc2ccc(Cl)c(Cl)c2)Oc2c(NC(=O)Nc3ccccc3)cccc2C1=O`, the AC50 (in [1]; in the assay with HEK293 [2]) was 18.8 µM (active) throughout.
Consider `COc1ccc(-n2nc(CCC(=O)N(C)O)cc2-c2ccc(Cl)cc2)cc1` [TEPOXALIN], for which the IC50 in assay [3] was 6.55 µM (inactive); in assay [4] it was 1.75 µM (active); in [5], 2.81 µM (active); in assay [6], 2.08 µM (active); in assay [7], 0.662 µM (active); in assay [8], 4.11 µM (active).
For `COc1ccccc1NC(=O)CSc1nnc(Cn2nnc(-c3ccccc3)n2)n1-c1ccccc1`, the Ki at fMet-Leu-Phe receptor was > 66.7 µM (inactive).
Regarding `CCN(CC)C(=O)c1cccnc1` [NIKETHAMIDE], the IC50 in assay [3], in assay [9], in assay [10], in [4], in [5] and in [6] was > 20 µM (inactive) in each case. Moreover, the IC50 in assay [7] and in assay [8] was > 20 µM (inactive) each time.
Take `Cc1ccc(C2=NN(C(=O)c3ccc(Br)o3)C(c3ccc(C)cc3)C2)cc1` (stereo not given): the half-maximal activity concentration (AC50) (in assay [1]; in the assay on HEK293 [2]) was 20.2 µM (active) in each case.
Regarding `Cc1ccc(CSc2nc3cc[nH]cc-3n2)cc1`, the EC50 in [11] was 10.8 µM (active); in assay [12], 7.38 µM (active); in the assay “cells” it was > 67.5 µM (inactive); in assay [17], > 67.5 µM (inactive). For the same compound, the concentration at half-maximal activity (AC50) in [13] is 26.5 µM (active); with HEK293 [14] it was 1.9 µM (active); in assay [15], 31.6 µM (active); in [16] it was > 52 µM (inactive); in assay [18], 2.98 µM (active); in assay [19] it was 2.93 µM (active).
With `Cn1ncc2c(Nc3ccc4ccccc4c3)ncnc21`, the CC50 in [20] is > 40 µM (active). In addition, the EC50 in assay [21] is 1.89 µM (active).
Take `CN1CCSc2ccc(C(=O)NCc3ccccc3F)cc21`: the figures for the EC50 (on Kallikrein-7; in [22]; in [23]) were > 23.2 µM (inactive), > 112 µM (not active) and > 112 µM (not active), respectively.
With `O=C(NCc1cccnc1)C1c2ccccc2C(=O)N1C1CCCCCCC1` (stereo not given), on fMet-Leu-Phe receptor, the Ki was 40.9 µM (inactive).
